Results: patent publication US8802849B2, “Tricyclic benzo[4,5]thieno-[2,3-d]pyrimidine-4-yl-amin derivatives, their salts, process for producing the compounds and their pharmaceutical use” (Vichem Chemie Kutató Kft., priority 2008, dated 2014)

Assays:
cMet = cMet (Homo sapiens, UniProt P08581); assay: cMet kinase assay; assay type: biochemical; conditions: 10 μM compound; read-out: cMet percent of inhibition
Outline: (§1)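 Radiometric filter-binding assay: each kinase was set to 10% ATP turnover, with ATP at KmATP plus [γ-33P]ATP and substrate at 5-fold Km. Compounds were tested at 10 μM final, the reaction ran 1 h at room temperature, and it was stopped with EDTA before counting.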

RSK1 = RSK1 (Homo sapiens, UniProt Q15418); assay: RSK1 kinase assay; assay type: biochemical; conditions: 10 μM compound; read-out: RSK1 percent of inhibition
Outline: as §1

InsR = InsR (Homo sapiens, UniProt P06213); assay: InsR kinase assay; assay type: biochemical; conditions: 10 μM compound; read-out: InsR percent of inhibition
Outline: as §1

CDK2/CycA = CDK2/CycA (Homo sapiens, UniProt P24941); assay: CDK2/CycA kinase assay; assay type: biochemical; conditions: 10 μM compound; read-out: CDK2/CycA percent of inhibition
Outline: as §1

EGFR = EGFR (Homo sapiens, UniProt P00533); assay: EGFR kinase assay (33P-ATP filter plate); assay type: biochemical; conditions: 10 μM compound; read-out: EGFR percent of inhibition
Outline: as §1

PDGFR-beta = PDGFR-beta (Homo sapiens, UniProt P09619); assay: PDGFR-beta kinase assay; assay type: biochemical; conditions: 10 μM compound; read-out: PDGFR-beta percent of inhibition
Outline: as §1

GSK-3beta = GSK-3beta (Homo sapiens, UniProt P49841); assay: GSK-3beta kinase assay; assay type: biochemical; conditions: 10 μM compound; read-out: GSK-3beta percent of inhibition
Outline: as §1

Jnk1a1 = Jnk1a1 (Homo sapiens, UniProt P45983); assay: Jnk1a1 kinase assay; assay type: biochemical; conditions: 10 μM compound; read-out: Jnk1a1 percent of inhibition
Outline: as §1

Abl = Abl (Homo sapiens, UniProt P00519); assay: Abl kinase assay; assay type: biochemical; conditions: 10 μM compound; read-out: Abl percent of inhibition
Outline: as §1

P70S6K = P70S6K (Homo sapiens, UniProt P23443); assay: P70S6K kinase assay; assay type: biochemical; conditions: 10 μM compound; read-out: P70S6K percent of inhibition
Outline: as §1

AKT1/PKBa = AKT1/PKBa (Homo sapiens, UniProt P31749); assay: AKT1/PKBa kinase assay; assay type: biochemical; conditions: 10 μM compound; read-out: AKT1/PKBa percent of inhibition
Outline: as §1

IKK-beta = molecular target: T1, IKK-beta (Homo sapiens, UniProt O14920); assay: IKK-beta kinase assay; assay type: biochemical; conditions: 10 μM compound; read-out: IKK-beta percent of inhibition
T1 sequence (O14920 1-756): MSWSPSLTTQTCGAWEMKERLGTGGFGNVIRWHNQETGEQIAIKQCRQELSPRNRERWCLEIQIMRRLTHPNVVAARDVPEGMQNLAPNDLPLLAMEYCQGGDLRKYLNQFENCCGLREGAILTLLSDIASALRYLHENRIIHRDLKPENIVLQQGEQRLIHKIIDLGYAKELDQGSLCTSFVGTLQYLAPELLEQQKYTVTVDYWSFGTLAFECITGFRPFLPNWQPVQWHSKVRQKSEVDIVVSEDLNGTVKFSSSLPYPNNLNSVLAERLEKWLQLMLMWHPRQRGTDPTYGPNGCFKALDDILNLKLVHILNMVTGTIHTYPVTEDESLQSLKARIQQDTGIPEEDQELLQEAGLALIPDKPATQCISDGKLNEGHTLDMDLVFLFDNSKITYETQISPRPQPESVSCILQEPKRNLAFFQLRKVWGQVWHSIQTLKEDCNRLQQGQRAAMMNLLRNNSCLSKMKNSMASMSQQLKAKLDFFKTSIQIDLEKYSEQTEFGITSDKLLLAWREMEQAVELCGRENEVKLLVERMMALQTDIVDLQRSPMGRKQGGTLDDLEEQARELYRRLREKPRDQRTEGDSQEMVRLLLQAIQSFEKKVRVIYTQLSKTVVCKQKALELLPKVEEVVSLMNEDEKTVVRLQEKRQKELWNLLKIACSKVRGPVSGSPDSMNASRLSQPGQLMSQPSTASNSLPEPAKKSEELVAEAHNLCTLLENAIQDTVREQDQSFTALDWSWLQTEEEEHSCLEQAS
Outline: as §1

c-Raf = c-Raf (Homo sapiens, UniProt P04049); assay: c-Raf kinase assay; assay type: biochemical; conditions: 10 μM compound; read-out: c-Raf percent of inhibition
Outline: as §1

MAPK-ERK1 = MAPK-ERK1 (Homo sapiens, UniProt P27361); assay: MAPK-ERK1 kinase assay; assay type: biochemical; conditions: 10 μM compound; read-out: MAPK-ERK1 percent of inhibition
Outline: as §1

SRPK1 = SRPK1 (Homo sapiens, UniProt Q96SB4); assay: SRPK1 kinase assay; assay type: biochemical; conditions: 10 μM compound; read-out: SRPK1 percent of inhibition
Outline: as §1

Kit = Kit (Homo sapiens, UniProt P10721); assay: Kit kinase assay; assay type: biochemical; conditions: 10 μM compound; read-out: Kit percent of inhibition
Outline: as §1

ROCK2 = ROCK2 (Homo sapiens, UniProt O75116); assay: ROCK2 kinase assay; assay type: biochemical; conditions: 10 μM compound; read-out: ROCK2 percent of inhibition
Outline: as §1

c-Src = c-Src (Homo sapiens, UniProt P12931); assay: c-Src kinase assay; assay type: biochemical; conditions: 10 μM compound; read-out: c-Src percent of inhibition
Outline: as §1

CK1-alpha = CK1-alpha (Homo sapiens, UniProt P48729); assay: CK1-alpha kinase assay; assay type: biochemical; conditions: 10 μM compound; read-out: CK1-alpha percent of inhibition
Outline: as §1

P56Lck = P56Lck (Homo sapiens, UniProt P06239); assay: P56Lck kinase assay; assay type: biochemical; conditions: 10 μM compound; read-out: P56Lck percent of inhibition
Outline: as §1

Sequence of Jnk1a1 (P45983 1-384 isoform P45983-2): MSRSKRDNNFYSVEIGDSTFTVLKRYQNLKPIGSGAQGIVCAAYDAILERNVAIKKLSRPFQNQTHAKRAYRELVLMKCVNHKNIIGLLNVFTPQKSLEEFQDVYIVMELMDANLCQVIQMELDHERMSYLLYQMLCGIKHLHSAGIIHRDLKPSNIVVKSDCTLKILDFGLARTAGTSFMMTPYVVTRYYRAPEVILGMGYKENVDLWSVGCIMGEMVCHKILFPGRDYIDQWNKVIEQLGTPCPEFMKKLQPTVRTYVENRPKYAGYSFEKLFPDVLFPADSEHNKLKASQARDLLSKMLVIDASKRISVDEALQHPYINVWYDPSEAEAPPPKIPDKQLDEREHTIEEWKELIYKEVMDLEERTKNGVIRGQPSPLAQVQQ
Sequence of CK1-alpha (P48729 whole entry): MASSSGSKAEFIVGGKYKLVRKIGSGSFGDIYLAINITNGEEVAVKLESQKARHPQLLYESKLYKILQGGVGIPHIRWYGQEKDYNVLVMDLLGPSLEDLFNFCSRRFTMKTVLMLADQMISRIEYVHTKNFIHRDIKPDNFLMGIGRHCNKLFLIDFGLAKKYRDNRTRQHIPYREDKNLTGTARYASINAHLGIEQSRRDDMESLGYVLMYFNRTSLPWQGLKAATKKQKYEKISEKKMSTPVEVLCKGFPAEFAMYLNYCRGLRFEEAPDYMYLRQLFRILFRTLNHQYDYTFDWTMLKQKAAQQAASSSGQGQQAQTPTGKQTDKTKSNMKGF
Sequence of PDGFR-beta (P09619 33-1106, species assumed): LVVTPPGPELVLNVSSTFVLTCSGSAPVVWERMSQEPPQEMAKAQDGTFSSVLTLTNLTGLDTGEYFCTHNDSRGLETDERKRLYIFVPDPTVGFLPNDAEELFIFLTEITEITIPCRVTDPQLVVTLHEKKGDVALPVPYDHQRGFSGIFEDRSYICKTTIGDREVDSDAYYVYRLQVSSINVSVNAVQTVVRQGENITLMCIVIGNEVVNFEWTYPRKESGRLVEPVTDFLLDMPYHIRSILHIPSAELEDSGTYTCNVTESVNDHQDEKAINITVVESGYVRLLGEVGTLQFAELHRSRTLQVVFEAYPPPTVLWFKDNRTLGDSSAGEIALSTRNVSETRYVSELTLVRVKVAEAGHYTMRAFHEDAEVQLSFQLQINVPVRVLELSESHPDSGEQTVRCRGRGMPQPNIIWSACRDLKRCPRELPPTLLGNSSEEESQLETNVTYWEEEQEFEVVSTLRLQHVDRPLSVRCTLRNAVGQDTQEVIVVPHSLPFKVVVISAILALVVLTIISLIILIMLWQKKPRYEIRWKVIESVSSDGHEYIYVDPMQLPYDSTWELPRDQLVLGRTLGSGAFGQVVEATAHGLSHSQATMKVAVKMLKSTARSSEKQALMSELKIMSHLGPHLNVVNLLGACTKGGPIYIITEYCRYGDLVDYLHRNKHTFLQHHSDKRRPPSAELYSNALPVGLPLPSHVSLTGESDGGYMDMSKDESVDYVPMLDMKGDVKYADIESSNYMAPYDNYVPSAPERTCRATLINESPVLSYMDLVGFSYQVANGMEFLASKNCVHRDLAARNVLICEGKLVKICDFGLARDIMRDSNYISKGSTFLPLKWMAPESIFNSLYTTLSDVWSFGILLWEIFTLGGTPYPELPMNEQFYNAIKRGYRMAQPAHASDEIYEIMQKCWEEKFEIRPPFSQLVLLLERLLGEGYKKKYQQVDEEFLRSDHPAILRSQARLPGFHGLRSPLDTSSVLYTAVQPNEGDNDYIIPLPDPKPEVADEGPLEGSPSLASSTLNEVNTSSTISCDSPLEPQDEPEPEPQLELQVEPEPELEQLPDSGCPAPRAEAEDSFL
Sequence of RSK1 (Q15418 whole entry, species assumed): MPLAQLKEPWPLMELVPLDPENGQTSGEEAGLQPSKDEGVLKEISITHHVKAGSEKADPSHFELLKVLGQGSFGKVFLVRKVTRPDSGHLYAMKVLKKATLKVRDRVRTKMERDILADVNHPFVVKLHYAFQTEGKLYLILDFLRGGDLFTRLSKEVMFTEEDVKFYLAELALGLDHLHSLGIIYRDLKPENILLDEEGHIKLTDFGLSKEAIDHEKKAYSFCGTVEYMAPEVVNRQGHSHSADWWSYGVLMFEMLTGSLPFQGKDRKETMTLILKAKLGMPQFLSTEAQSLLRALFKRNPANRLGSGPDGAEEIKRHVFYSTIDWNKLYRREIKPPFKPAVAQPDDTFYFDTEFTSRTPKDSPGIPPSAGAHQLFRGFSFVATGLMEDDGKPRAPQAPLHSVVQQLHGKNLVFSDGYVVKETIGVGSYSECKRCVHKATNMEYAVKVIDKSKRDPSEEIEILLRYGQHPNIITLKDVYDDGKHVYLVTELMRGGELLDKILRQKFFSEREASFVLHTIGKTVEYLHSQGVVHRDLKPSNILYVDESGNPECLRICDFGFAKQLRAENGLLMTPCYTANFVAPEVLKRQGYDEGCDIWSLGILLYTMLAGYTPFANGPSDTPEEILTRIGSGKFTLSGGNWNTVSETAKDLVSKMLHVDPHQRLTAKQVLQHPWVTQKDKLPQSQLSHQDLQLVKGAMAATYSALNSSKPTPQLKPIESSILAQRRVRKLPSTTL
Sequence of SRPK1 (Q96SB4 whole entry, species assumed): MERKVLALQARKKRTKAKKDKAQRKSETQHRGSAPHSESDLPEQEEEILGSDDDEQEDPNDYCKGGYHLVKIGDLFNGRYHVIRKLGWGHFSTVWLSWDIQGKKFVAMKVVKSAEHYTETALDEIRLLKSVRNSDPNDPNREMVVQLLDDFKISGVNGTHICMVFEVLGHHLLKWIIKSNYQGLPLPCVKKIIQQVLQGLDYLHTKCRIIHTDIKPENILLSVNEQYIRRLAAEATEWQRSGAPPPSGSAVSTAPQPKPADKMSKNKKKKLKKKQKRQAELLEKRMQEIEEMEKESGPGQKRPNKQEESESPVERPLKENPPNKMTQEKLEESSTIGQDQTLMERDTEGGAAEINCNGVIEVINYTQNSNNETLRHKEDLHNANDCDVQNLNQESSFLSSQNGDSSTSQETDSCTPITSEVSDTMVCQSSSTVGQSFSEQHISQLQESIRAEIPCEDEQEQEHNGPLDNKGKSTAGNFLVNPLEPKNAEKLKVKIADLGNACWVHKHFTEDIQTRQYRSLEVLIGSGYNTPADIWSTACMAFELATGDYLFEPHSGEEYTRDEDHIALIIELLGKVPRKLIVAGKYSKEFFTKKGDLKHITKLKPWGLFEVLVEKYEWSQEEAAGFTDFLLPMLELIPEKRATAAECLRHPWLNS
Sequence of AKT1/PKBa (P31749 whole entry): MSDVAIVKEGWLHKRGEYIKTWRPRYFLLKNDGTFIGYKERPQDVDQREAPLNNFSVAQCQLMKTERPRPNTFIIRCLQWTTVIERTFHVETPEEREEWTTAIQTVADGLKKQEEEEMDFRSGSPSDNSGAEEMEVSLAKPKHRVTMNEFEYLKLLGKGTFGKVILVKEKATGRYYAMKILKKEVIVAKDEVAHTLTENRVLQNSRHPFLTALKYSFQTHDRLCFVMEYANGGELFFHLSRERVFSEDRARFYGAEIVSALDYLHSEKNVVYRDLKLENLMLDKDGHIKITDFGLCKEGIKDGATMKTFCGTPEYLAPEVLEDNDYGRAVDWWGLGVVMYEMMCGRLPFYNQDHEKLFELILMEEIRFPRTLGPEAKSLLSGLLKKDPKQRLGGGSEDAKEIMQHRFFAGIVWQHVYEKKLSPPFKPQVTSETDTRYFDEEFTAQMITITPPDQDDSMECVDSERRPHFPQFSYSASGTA
Sequence of Abl (P00519 whole entry, species assumed): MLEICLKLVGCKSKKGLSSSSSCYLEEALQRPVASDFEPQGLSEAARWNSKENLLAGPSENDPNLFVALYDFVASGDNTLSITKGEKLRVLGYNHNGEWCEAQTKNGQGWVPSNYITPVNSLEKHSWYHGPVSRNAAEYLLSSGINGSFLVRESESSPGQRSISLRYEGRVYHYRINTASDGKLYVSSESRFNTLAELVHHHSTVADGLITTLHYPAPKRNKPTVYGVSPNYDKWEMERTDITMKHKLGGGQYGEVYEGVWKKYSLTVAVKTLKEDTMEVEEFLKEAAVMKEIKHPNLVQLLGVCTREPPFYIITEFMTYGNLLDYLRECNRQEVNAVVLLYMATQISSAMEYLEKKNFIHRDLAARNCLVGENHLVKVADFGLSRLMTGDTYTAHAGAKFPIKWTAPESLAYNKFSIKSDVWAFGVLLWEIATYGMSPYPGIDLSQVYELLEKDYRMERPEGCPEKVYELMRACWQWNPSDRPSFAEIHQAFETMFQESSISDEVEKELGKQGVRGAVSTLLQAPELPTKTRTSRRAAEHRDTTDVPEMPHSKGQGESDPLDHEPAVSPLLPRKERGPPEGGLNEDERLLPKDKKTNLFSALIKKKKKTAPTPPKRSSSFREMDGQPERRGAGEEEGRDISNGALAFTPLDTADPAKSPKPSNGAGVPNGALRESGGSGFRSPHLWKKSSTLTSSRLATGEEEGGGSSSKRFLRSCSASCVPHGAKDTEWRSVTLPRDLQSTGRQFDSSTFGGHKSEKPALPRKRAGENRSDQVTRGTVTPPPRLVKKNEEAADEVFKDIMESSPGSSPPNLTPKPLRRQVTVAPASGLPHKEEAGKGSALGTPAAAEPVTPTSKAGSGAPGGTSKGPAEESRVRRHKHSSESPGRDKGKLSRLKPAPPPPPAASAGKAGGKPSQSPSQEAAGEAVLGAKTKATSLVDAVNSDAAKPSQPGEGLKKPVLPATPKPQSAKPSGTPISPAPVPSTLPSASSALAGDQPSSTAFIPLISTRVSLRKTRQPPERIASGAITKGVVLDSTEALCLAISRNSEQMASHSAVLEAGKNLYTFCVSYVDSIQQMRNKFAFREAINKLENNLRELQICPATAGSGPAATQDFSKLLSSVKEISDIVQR

Row | inhibition at 10 µM (cMet) | inhibition at 10 µM (RSK1) | inhibition at 10 µM (InsR) | inhibition at 10 µM (CDK2/CycA) | inhibition at 10 µM (EGFR) | inhibition at 10 µM (PDGFR-beta) | inhibition at 10 µM (GSK-3beta) | inhibition at 10 µM (Jnk1a1) | inhibition at 10 µM (Abl) | inhibition at 10 µM (P70S6K) | inhibition at 10 µM (AKT1/PKBa) | inhibition at 10 µM (IKK-beta) | inhibition at 10 µM (c-Raf) | inhibition at 10 µM (MAPK-ERK1) | inhibition at 10 µM (SRPK1) | inhibition at 10 µM (Kit) | inhibition at 10 µM (ROCK2) | inhibition at 10 µM (c-Src) | inhibition at 10 µM (CK1-alpha) | inhibition at 10 µM (P56Lck) | Structure (SMILES) | further results
1 | -4% | -18% | 9% | -18% | 26% | -14% | -6% | -9% | -15% | 9% | -2% | -9% | -7% | -6% | 11% | -12% | 3% | 1% | 0% | 12% | O=[N+]([O-])c1cccc(Nc2nc(C3CC3)nc3sc4c(c23)CCCC4)c1 [Compound 13, (2-Cyclopropyl-5,6,7,8-tetrahydro-benzo[4,5]thieno[2,3-d]pyrimidin-4-yl)-(3-nitro-phenyl)-amine] | melting point: 211.7 °C
2 | -12% | -11% | 11% | -12% | 54% | -1% | 7% | -2% | 3% | 3% | -5% | 12% | -4% | 2% | 3% | 3% | 7% | 11% | 9% | 3% | Oc1cccc(Nc2nc(C3CC3)nc3sc4ccccc4c23)c1 [Compound 19, 3-(2-Cyclopropyl-benzo[4,5]thieno[2,3-d]pyrimidin-4-ylamino)-phenol] | melting point: 222 °C
